Source: PubChem BioAssay (NCI)
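GI50 is the concentration that inhibits growth by half. At the TGI there is no net growth.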

How the values were obtained:
Test in all cases: NCI anticancer screen, dose series, 384-well format
[1] = system: 786-0 renal
[2] = system: A498 renal
[3] = system: A549 NSCLC
[4] = system: ACHN renal
[5] = system: BT-549 breast
[6] = system: CAKI-1 renal
[7] = system: CCRF-CEM leukemia
[8] = system: COLO 205 colon
[9] = system: DU-145 prostate
[10] = system: EKVX NSCLC
[11] = system: HCC-2998 colon
[12] = system: HCT-116 colon
[13] = system: HCT-15 colon
[14] = system: HL-60(TB) leukemia
[15] = system: HOP-62 NSCLC
[16] = system: HOP-92 NSCLC
[17] = system: HS 578T breast
[18] = system: HT29 colon
[19] = system: IGROV1 ovarian
[20] = system: K-562 leukemia
[21] = system: KM12 colon
[22] = system: M14 melanoma
[23] = system: MALME-3M melanoma
[24] = system: MCF7 breast
[25] = system: MDA-MB-231 breast
[26] = system: MDA-MB-435 melanoma
[27] = system: MDA-MB-468 breast
[28] = system: MOLT-4 leukemia
[29] = system: NCI-H226 lung
[30] = system: NCI-H23 lung
[31] = system: NCI-H322M lung
[32] = system: NCI-H460 NSCLC
[33] = system: NCI-H522 lung
[34] = system: NCI/ADR-RES ovarian
[35] = system: OVCAR-3 ovarian
[36] = system: OVCAR-4 ovarian
[37] = system: OVCAR-5 ovarian
[38] = system: OVCAR-8 ovarian
[39] = system: PC-3 prostate
[40] = system: RPMI-8226 leukemia
[41] = system: RXF 393 renal
[42] = system: SF-268 CNS
[43] = system: SF-295 CNS
[44] = system: SF-539 CNS
[45] = system: SK-MEL-2 melanoma
[46] = system: SK-MEL-28 melanoma
[47] = system: SK-MEL-5 melanoma
[48] = system: SK-OV-3 ovarian
[49] = system: SN12C renal
[50] = system: SNB-19 CNS
[51] = system: SNB-75 CNS
[52] = system: SR leukemia
[53] = system: SW-620 colon
[54] = system: T-47D breast
[55] = system: TK-10 renal
[56] = system: U251 glioblastoma
[57] = system: UACC-257 melanoma
[58] = system: UACC-62 melanoma

Work on `C[C@@]1(c2ncncc2F)NC(=O)c2cc(-c3cn[nH]c3)ccc21` yielded a GI50 [1] of 16 µM, a TGI [1] of 35.1 µM and a GI50 [2] of 10.9 µM. For the same compound, the TGI [2] was > 92 µM, the GI50 [3] was 17.3 µM and the TGI [3] was > 100 µM. It also gave a GI50 [4] of 20.9 µM, a TGI [4] of 69.8 µM and a GI50 [5] of 9.62 µM. The TGI [5] was 24.2 µM, the GI50 [6] was 20.1 µM and the TGI [6] was 63.4 µM. For the same compound, the GI50 [7] was 2.74 µM, the TGI [7] was 7.58 µM and the GI50 [8] was 2.01 µM. For the same compound, the TGI [8] was 4.03 µM, the GI50 [9] was 16.2 µM and the TGI [9] was > 100 µM. The GI50 [10] was 16.7 µM, the TGI [10] was 42.5 µM and the GI50 [11] was 12.6 µM. For the same compound, the TGI [11] was 34.3 µM, the GI50 [12] was 6.88 µM and the TGI [12] was > 100 µM. The GI50 [13] was 15.9 µM, the TGI [13] was > 83.9 µM and the GI50 [14] was 5.53 µM. The TGI [14] was 16.7 µM, the GI50 [15] was 16 µM and the TGI [15] was 50.8 µM. The GI50 [16] was 19.4 µM, the TGI [16] was 47.5 µM and the GI50 [17] was 18.4 µM. For the same compound, the TGI [17] was 35.2 µM, the GI50 [18] was 5.11 µM and the TGI [18] was 25.4 µM. It also gave a GI50 [19] of 20.5 µM, a TGI [19] of 56.1 µM and a GI50 [20] of 11.2 µM. The TGI [20] was > 100 µM, the GI50 [21] was 15.8 µM and the TGI [21] was 35.1 µM. The GI50 [22] was 5.45 µM, the TGI [22] was 22 µM and the GI50 [23] was 2.77 µM. For the same compound, the TGI [23] was 14.4 µM, the GI50 [24] was 26.6 µM and the TGI [24] was > 83 µM. For the same compound, the GI50 [25] was 14.9 µM, the TGI [25] was 33.1 µM and the GI50 [26] was 15.7 µM. It also gave a TGI [26] of 38.3 µM, a GI50 [27] of 5.03 µM and a TGI [27] of 14.4 µM. For the same compound, the GI50 [28] was 13.8 µM, the TGI [28] was 27.8 µM and the GI50 [29] was 18.4 µM. The TGI [29] was 60.7 µM, the GI50 [30] was 10.4 µM and the TGI [30] was 25.2 µM. For the same compound, the GI50 [31] was 22.4 µM, the TGI [31] was 58.4 µM and the GI50 [32] was 15.5 µM. It also gave a TGI [32] of 41.6 µM, a GI50 [33] of 4.74 µM and a TGI [33] of 38.6 µM. The GI50 [34] was 62.6 µM, the TGI [34] was > 100 µM and the GI50 [35] was 22.2 µM. For the same compound, the TGI [35] was 52.4 µM, the GI50 [36] was 42 µM and the TGI [36] was 88.8 µM. The GI50 [37] was 16.3 µM, the TGI [37] was 50.2 µM and the GI50 [38] was 25.8 µM. It also gave a TGI [38] of 82.6 µM, a GI50 [39] of 21.6 µM and a TGI [39] of 71.1 µM. It also gave a GI50 [40] of 24 µM, a TGI [40] of 41.3 µM and a GI50 [41] of 25.3 µM. For the same compound, the TGI [41] was 42.4 µM, the GI50 [42] was 13 µM and the TGI [42] was 31 µM. The GI50 [43] was 28.5 µM, the TGI [43] was > 85 µM and the GI50 [44] was 12.1 µM. It also gave a TGI [44] of 29.1 µM, a GI50 [45] of 31.8 µM and a TGI [45] of 54 µM. It also gave a GI50 [46] of 11.8 µM, a TGI [46] of 27.6 µM and a GI50 [47] of 13 µM. The TGI [47] was 31 µM, the GI50 [48] was 28.9 µM and the TGI [48] was > 71.3 µM. For the same compound, the GI50 [49] was 17.3 µM, the TGI [49] was 49.9 µM and the GI50 [50] was 28.8 µM. For the same compound, the TGI [50] was > 100 µM, the GI50 [51] was 14.1 µM and the TGI [51] was 28.4 µM. For the same compound, the GI50 [52] was 2.56 µM, the TGI [52] was 5.45 µM and the GI50 [53] was 2.03 µM. The TGI [53] was 5.93 µM, the GI50 [54] was 30.9 µM and the TGI [54] was 82.1 µM. It also gave a GI50 [55] of 15.8 µM, a TGI [55] of 36 µM and a GI50 [56] of 11.1 µM. The TGI [56] was 48.4 µM, the GI50 [57] was 17.8 µM and the TGI [57] was 44.9 µM. For the same compound, the GI50 [58] was 12.2 µM and the TGI [58] was 28.8 µM.
